Experiments:
[1] = biological target: mouse myeloma catalytic antibody MOPC 167 (IgA); settings: from Pollack et al., Science 234: 1570-1573 (1986); cited from earlier work
[2] = system: MOPC 167 catalytic antibody (binding of anti-idiotype antibody 1F1); experiment: Competitive ELISA using the free transition state analog: binding of anti-Id 1F1 to MOPC 167; set-up: species or system mouse; settings: 10 mM TS analog present
Protocol: (§1) The first competitive ELISA uses the MOPC 167 catalytic antibody adsorbed onto microtitre plate wells. This assay measures the blocking effect of the p-nitrophenylphosphorylcholine transition state analog on the binding of anti-idiotype antibodies to MOPC 167 (FIG. 2, A versus B).
(§2) A true combining site-reactive anti-idiotype antibody will be prevented from interacting with MOPC 167 if this assay is performed in the presence of an excess of the transition state analog because that analog will preoccupy the catalytic combining site (FIG. 2, B). Since the anti-idiotype is blocked from attaching to MOPC 167 and will subsequently wash away, a reduced signal is obtained after the peroxidase-labeled, γ-specific anti-mouse IgG reagent and its substrate are added (compare FIG. 2, A, unblocked control and B, transition state analog blockade).
(§3) Binding of 4G4 and 1F1 to MOPC 167 was inhibited by 67% and 70% respectively when 10 mM p-nitrophenylphosphorylcholine TS analog was present.

[3] = system: mouse myeloma catalytic antibody MOPC 167 (IgA); experiment: MOPC 167 catalyzed acetylthiocholine hydrolysis (esterase activity, Ellman's reagent); type: biochemical; settings: acetylthiocholine as substrate; analog concentration not given
Excerpt: It was recognized that the phosphocholine moiety might serve as a transition state analog for ester hydrolysis according to the scheme shown in FIG. 5. MOPC 167 was therefore tested for esterase activity using acetylthiocholine as a substrate and Ellman's reagent (E-ss-E) for the detection of thiol production (Izadyar et al., Proceedings of the National Academy of Sciences of the United States of America 90: 8876-80 (1993)).
Analysis of the Lineweaver-Burk plot for MOPC 167 catalyzed acetylthiocholine hydrolysis (FIG. 7) gave a Michaelis constant, km =627 μM and catalytic constant, kcat =0.25 min^-1 which were close to the values measured for carbonate ester hydrolysis (Pollack et al., Science 234: 1570-1573 (1986)). However, since spontaneous hydrolysis of this substrate is low, kuncat =4×10^-5 min^-1, the kcat /kuncat =6,000 is about 10-fold greater than that recorded for MOPC 167 catalysis of the carbonate ester reaction. That rate enhancement should be increased by using idiotypic mimicry.

[4] = system: MOPC 167 catalytic antibody (binding of anti-idiotype antibody 4G4); experiment: Competitive ELISA using the free transition state analog: binding of anti-Id 4G4 to MOPC 167; set-up: species or system mouse; settings: 10 mM TS analog present
Protocol: as §1, §2, §3

## C[N+](C)(C)CCOP(=O)([O-])Oc1ccc([N+](=O)[O-])cc1 [p-nitrophenylphosphorylcholine]
[1]
  affinity Ka: ~ 10^6 M^-1
[2]
  inhibition of binding of 1F1 to MOPC 167: 70%
[3]
  blockage of esterase activity by the non-cleavable transition state analog: almost completely blocked
[4]
  inhibition of binding of 4G4 to MOPC 167: 67%
